The values below come from patent EP1247803A2, “Indolinone compounds suitable for modulation of protein kinases” (Sugen, Inc., priority 1996, dated 1998).

SMILES strings stand for the structures.

In the assay the target is T1, FLK-1 receptor (Mus musculus, UniProt P35918).
T1 construct: expressed in transfected cells; host or cells: NIH3T3 C7#3
T1 sequence (P35918 20-1345): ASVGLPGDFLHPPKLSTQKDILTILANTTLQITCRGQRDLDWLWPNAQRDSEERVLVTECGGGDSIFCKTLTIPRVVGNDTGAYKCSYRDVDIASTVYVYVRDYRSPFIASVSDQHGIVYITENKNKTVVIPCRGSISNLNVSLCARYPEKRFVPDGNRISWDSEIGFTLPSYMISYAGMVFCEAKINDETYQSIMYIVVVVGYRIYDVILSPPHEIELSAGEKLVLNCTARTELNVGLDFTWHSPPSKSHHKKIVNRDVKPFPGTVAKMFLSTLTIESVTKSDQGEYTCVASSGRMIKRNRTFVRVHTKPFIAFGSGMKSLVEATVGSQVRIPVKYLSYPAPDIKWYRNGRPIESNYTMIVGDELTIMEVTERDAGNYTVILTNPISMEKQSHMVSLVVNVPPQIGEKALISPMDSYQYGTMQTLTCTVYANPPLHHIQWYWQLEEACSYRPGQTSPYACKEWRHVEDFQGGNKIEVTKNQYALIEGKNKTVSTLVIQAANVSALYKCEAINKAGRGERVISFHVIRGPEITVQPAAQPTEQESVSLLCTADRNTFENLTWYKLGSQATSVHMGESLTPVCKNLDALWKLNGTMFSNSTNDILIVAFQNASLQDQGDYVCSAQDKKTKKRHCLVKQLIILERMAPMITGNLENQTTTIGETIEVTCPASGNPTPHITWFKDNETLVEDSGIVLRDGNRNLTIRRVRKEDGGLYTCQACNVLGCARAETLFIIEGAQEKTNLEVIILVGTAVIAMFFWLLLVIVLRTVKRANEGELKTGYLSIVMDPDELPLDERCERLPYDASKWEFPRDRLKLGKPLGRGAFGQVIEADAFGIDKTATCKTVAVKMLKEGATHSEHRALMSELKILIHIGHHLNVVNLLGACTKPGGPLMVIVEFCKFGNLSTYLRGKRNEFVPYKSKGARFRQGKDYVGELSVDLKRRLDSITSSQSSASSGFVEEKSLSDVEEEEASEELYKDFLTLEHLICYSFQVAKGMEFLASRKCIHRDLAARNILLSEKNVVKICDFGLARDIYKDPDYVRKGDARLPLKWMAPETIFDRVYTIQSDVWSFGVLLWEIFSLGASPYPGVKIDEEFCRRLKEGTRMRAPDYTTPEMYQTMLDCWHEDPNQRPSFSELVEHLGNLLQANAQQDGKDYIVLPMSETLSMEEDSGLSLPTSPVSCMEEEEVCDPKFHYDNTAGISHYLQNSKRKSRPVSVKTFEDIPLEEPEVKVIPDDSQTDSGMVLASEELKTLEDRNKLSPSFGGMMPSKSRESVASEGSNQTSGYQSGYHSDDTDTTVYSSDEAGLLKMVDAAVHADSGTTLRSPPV
In words: FLK-1 ELISA (kinase activity of the FLK-1 receptor in FLK-1/NIH3T3 cells, VEGF stimulated). In kind it is cell-based. In a few lines:
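FLK-1-expressing NIH3T3 C7#3 cells, starved overnight in 0.1% FBS medium, were treated with compounds at a 1:200 final dilution (0.5% DMSO) for 2 h at 37 °C, with VEGF stimulation. FLK-1 kinase activity was read by ELISA on anti-rabbit IgG plates using affinity-purified anti-FLK-1 antiserum.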
A general note: An ELISA detects its analyte on a solid surface through an enzyme-linked reagent.
Consider `COc1cc(C)cc(O)c1C=C1C(=O)Nc2ccc(I)cc21` [10725/B06], for which the “Fik Kinase %Inhibition” value is -0.5%.

Regarding `O=C1Nc2ccc(S(=O)(=O)Nc3ccc(C(F)(F)F)cc3)cc2C1=Cc1ccc[nH]1` [10717/E09], the “Fik Kinase %Inhibition” value is reported as -1.1%.

For `CC(C)c1cc(C=C2C(=O)Nc3ccc(S(=O)(=O)Nc4ccc(C(F)(F)F)cc4)cc32)cc(C(C)C)c1O` [10724/E06], the “Fik Kinase %Inhibition” value is given as 8.3%.

With `COc1cc(C)cc(O)c1C=C1C(=O)Nc2c(Br)cc(Br)cc21` [10725/A06], the “Fik Kinase %Inhibition” value is reported as -7.3%.

With `O=C1Nc2ccc(S(=O)(=O)N3CCOCC3)cc2C1=Cc1cccs1` [10717/F03], the “Fik Kinase %Inhibition” value amounted to 0.5%.

Consider `CCOc1ccccc1C=C1C(=O)Nc2ccc(S(=O)(=O)N3CCOCC3)cc21` [10717/F02], for which the “Fik Kinase %Inhibition” value stood at 2.2%.

With `CCc1ccc(C=C2C(=O)Nc3ccc(S(=O)(=O)Nc4ccc(C(F)(F)F)cc4)cc32)o1` [10724/E10], the “Fik Kinase %Inhibition” value was 7.3%.

Turning to `O=CN1CCN(c2ccc(C=C3C(=O)Nc4ccc(I)cc43)cc2)CC1` [10725/B07], the “Fik Kinase %Inhibition” value came out at 24.6%.

For `CNS(=O)(=O)c1ccc2c(c1)C(=Cc1cc3ccccc3o1)C(=O)N2` [10724/D07], the “Fik Kinase %Inhibition” value was -2.6%.

With `O=C1Nc2c(Br)cc(Br)cc2C1=Cc1sccc1Br` [10725/A02], the “Fik Kinase %Inhibition” value is -2.0%.

On to `O=C1Nc2c(Br)cc(Br)cc2C1=Cc1cc2ccccc2o1` [10724/A07], for which the “Fik Kinase %Inhibition” value was 3.7%.

`Cc1c(Br)ccc2c1C(=Cc1ccc(O)c([N+](=O)[O-])c1)C(=O)N2` [10724/C03]: the “Fik Kinase %Inhibition” value is on record as -20.3%.

`O=C1Nc2ccc(CCCl)cc2C1=Cc1cccn1-c1ccc(Cl)cc1` [10724/G09]: the “Fik Kinase %Inhibition” value was found to be 9.1%.

`Cn1cccc1C=C1C(=O)Nc2c(Br)cc(Br)cc21` [10717/A04]: the “Fik Kinase %Inhibition” value is -4.5%.

For the compound `O=C1Nc2ccc(I)cc2C1=Cc1c[nH]cn1` [10725/B11], the “Fik Kinase %Inhibition” value is given as -42.3%.

Regarding `CNS(=O)(=O)c1ccc2c(c1)C(=Cc1cc3c4c(c1O)CCCN4CCC3)C(=O)N2` [10724/D05], the “Fik Kinase %Inhibition” value is -1.6%.

In the case of `CNS(=O)(=O)c1ccc2c(c1)C(=Cc1cc(C(C)C)c(O)c(C(C)C)c1)C(=O)N2` [10724/D06], the “Fik Kinase %Inhibition” value worked out at 12.4%.

On to `O=C1Nc2ccc(CCCl)cc2C1=Cc1cc2c3c(c1O)CCCN3CCC2` [10724/G05], for which the “Fik Kinase %Inhibition” value was -0.1%.

Regarding `Cc1cc(C=C2C(=O)Nc3ccc(I)cc32)[nH]n1` [10725/B05], the “Fik Kinase %Inhibition” value is listed as -61.0%.

`O=C1Nc2c(Br)cc(Br)cc2C1=Cc1ccc(O)c([N+](=O)[O-])c1` [10724/A03]: the “Fik Kinase %Inhibition” value is on record as -7.8%.

`Cc1csc2sc(C=C3C(=O)Nc4c(Br)cc(Br)cc43)c(C)c12` [10724/A11]: the “Fik Kinase %Inhibition” value was 12.8%.

With `O=C1Nc2ccc(I)cc2C1=Cc1sccc1Br` [10725/B02], the “Fik Kinase %Inhibition” value is listed as -2.8%.

As for `Cc1c(Br)ccc2c1C(=Cc1cc(C(C)C)c(O)c(C(C)C)c1)C(=O)N2` [10724/C06], the “Fik Kinase %Inhibition” value is -1.5%.

Consider `O=C1Nc2ccc(S(=O)(=O)Nc3ccc(C(F)(F)F)cc3)cc2C1=Cc1ccc(O)c([N+](=O)[O-])c1` [10724/E03], for which the “Fik Kinase %Inhibition” value was found to be 10.6%.

Turning to `CCc1ccc(C=C2C(=O)Nc3c(Br)cc(Br)cc32)o1` [10724/A10], the “Fik Kinase %Inhibition” value came out at 1.6%.

Turning to `O=C1Nc2c(Br)cc(Br)cc2C1=Cc1cc2c3c(c1O)CCCN3CCC2` [10724/A05], the “Fik Kinase %Inhibition” value is -15.2%.

Take `O=C1Nc2ccc(S(=O)(=O)Nc3ccc(C(F)(F)F)cc3)cc2C1=Cc1ccc([N+](=O)[O-])c(O)c1` [10724/E04]: the “Fik Kinase %Inhibition” value was found to be 55.2%.

As for `Cc1[nH]c(C=C2C(=O)Nc3ccc(S(=O)(=O)Nc4ccc(C(F)(F)F)cc4)cc32)c(Br)c1Br` [10717/E11], the “Fik Kinase %Inhibition” value was 8.9%.

Regarding `O=C1Nc2c(Br)cc(Br)cc2C1=Cc1ccc([N+](=O)[O-])c(O)c1` [10724/A04], the “Fik Kinase %Inhibition” value is -15.9%.
